Test results reported in EP4631969A1, “PEPTIDE FOR CARTILAGE REGENERATION, AND USES THEREOF” (Caregen Co., Ltd., priority 2022, dated 2024).
Where no end group is shown, it is not given here.

Test system: Human Adipose-Derived Mesenchymal Stem Cells (AD-MSC)
Test: Confirmation of cytotoxicity (CCK-8 activity test and SRB staining)
Type: cell-based
Settings: about 1 to 200 µg/ml, 7 days of culture; for cytotoxicity: CCK-8; for change in cell morphology: SRB staining, microscope
Procedure: Human Adipose-Derived Mesenchymal Stem Cells (AD-MSC) were treated with Peptide-1 or Peptide-2 to determine whether they were cytotoxic.
Specifically, AD-MSCs were seeded in 96-well plates at a concentration of about 1.5 x 10^3 cells/well and cultured in DMEM medium (about 10 % FBS + DMEM medium) for about 24 hours. […] After 7 days of culture, about 1/10 of the culture medium was treated with a CCK-8 (Dojindo, CCK-8 kit) solution and cultured for about 2 hours. After incubation, the culture medium was sampled and the absorbance was measured at a wavelength of about 450 nm using a microplate reader. After measuring the absorbance, the medium in the culture medium in the 96-well plate was removed, and about 60 µl of 3.7 % formalin was added to the 96-well plate to fix the cells for about 1 minute. After cell fixation, the formalin was removed, and about 70 ul of SRB staining solution (about 0.2 g of Sulforhodamine B sodium salt (sigma, S9012) dissolved in about 100 ml of double-distilled water) was added to the fixed cells, and the cells were stained by culturing overnight at room temperature in a lightblocking condition. After cell staining, the cells were washed with about 1 % acetic acid and dried. The dried cells were observed under a microscope. As control groups, an experimental group (CON) that was not treated with the above peptide and an experimental group (CM) treated with a solution containing about 100 nM dexamethasone, about 50 µM ascorbic acid, about 40 µM proline, about 10 ng/ml TGFβ1, and 1X ITS instead of the above peptide were used.

| Substance | cytotoxicity | change in cell morphology |
| --- | --- | --- |
| HHEQF [Peptide-2, HHEQF] | no cytotoxicity was caused | no change in cell morphology occurred at all concentrations |
| STGALSTSFTEE [Peptide-1, STGALSTSFTEE] | no cytotoxicity was caused | no change in cell morphology occurred at all concentrations |
